{"source": "paper PMC3256935", "about": "(Journal of Medicinal Chemistry, 2011)", "target": "T1, TbNMT (Trypanosoma brucei brucei, UniProt Q388H8)", "T1 sequence (Q388H8 1-446)": "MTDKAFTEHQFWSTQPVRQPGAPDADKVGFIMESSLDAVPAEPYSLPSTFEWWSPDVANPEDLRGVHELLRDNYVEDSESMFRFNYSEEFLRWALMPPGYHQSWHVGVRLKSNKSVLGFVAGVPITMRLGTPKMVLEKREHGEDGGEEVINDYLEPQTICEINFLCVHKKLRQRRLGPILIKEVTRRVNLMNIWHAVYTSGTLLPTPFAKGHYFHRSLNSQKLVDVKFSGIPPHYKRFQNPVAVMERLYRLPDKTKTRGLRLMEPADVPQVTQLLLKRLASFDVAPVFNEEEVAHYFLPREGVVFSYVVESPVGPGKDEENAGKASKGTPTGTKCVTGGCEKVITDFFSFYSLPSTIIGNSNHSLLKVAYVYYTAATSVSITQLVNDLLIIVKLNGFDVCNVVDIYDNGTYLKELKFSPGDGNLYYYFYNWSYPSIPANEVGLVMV", "assay": "biochemical", "data": [{"smiles": "Cc1nn(C)c(C)c1NCc1ccc(Br)cc1", "note": "[Compound 21]", "values": [{"measurement": "IC50", "result": "> 100", "unit": "µM"}]}]}
